Tests used:
Assay in all cases: relative viability (nuclei count vs DMSO), 5 days (fraction); higher = more cells survive
KIN001-266 + Foretinib = compound: CCN1CCC(CC1)N2C=C(N=N2)CNC3=CC4=C(C(=CN=C4C(=C3)Cl)C#N)NC5=CC(=C(C=C5)F)Cl [KIN001-266] + COc1cc2c(Oc3ccc(NC(=O)C4(C(=O)Nc5ccc(F)cc5)CC4)cc3F)ccnc2cc1OCCCN1CCOCC1 [Foretinib] (partner 0.25 µM)
Summary of the method: (§1)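 Lung cancer cell lines were seeded in 1536-well plates and dosed by pin tool the next day, with either a single drug or a fixed anchor-drug dose combined with five library-drug doses (not always all listed) spaced in √10 steps. Five days later, one step fixed the cells and stained their nuclei (final 0.05% Triton X-100, 1% formaldehyde, 1 ug/ml Hoechst), and nuclei were counted on 4× images. Relative viability is the nuclei count in treated wells divided by the count in vehicle wells, and each value is the median of duplicate plates.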

KIN001-266 + Vorinostat = compound: CCN1CCC(CC1)N2C=C(N=N2)CNC3=CC4=C(C(=CN=C4C(=C3)Cl)C#N)NC5=CC(=C(C=C5)F)Cl [KIN001-266] + O=C(CCCCCCC(=O)Nc1ccccc1)NO [Vorinostat] (partner 1 µM)
Summary of the method: as §1

KIN001-266 + Pictilisib = compound: CCN1CCC(CC1)N2C=C(N=N2)CNC3=CC4=C(C(=CN=C4C(=C3)Cl)C#N)NC5=CC(=C(C=C5)F)Cl [KIN001-266] + CS(=O)(=O)N1CCN(Cc2cc3nc(-c4cccc5[nH]ncc45)nc(N4CCOCC4)c3s2)CC1 [Pictilisib] (partner 1 µM)
Summary of the method: as §1

KIN001-266 + AZD7762 = compound: CCN1CCC(CC1)N2C=C(N=N2)CNC3=CC4=C(C(=CN=C4C(=C3)Cl)C#N)NC5=CC(=C(C=C5)F)Cl [KIN001-266] + NC(=O)Nc1cc(-c2cccc(F)c2)sc1C(=O)N[C@H]1CCCNC1 [AZD7762] (partner 0.2 µM)
Summary of the method: as §1

Cell Line	relative viability (KIN001-266 + Foretinib; first compound 0.08 µM)	relative viability (KIN001-266 + Foretinib; first compound 0.253 µM)	relative viability (KIN001-266 + Foretinib; first compound 0.8 µM)	relative viability (KIN001-266 + Foretinib; first compound 2.53 µM)	relative viability (KIN001-266 + Foretinib; first compound 8 µM)	relative viability (KIN001-266 + Vorinostat; first compound 0.08 µM)	relative viability (KIN001-266 + Vorinostat; first compound 0.253 µM)	relative viability (KIN001-266 + Vorinostat; first compound 0.8 µM)	relative viability (KIN001-266 + Vorinostat; first compound 2.53 µM)	relative viability (KIN001-266 + Vorinostat; first compound 8 µM)	relative viability (KIN001-266 + Pictilisib; first compound 0.08 µM)	relative viability (KIN001-266 + Pictilisib; first compound 0.253 µM)	relative viability (KIN001-266 + Pictilisib; first compound 0.8 µM)	relative viability (KIN001-266 + Pictilisib; first compound 2.53 µM)	relative viability (KIN001-266 + Pictilisib; first compound 8 µM)	relative viability (KIN001-266 + AZD7762; first compound 0.08 µM)	relative viability (KIN001-266 + AZD7762; first compound 0.253 µM)	relative viability (KIN001-266 + AZD7762; first compound 0.8 µM)	relative viability (KIN001-266 + AZD7762; first compound 2.53 µM)	relative viability (KIN001-266 + AZD7762; first compound 8 µM)
NCI-H2228	0.76	0.733	0.82	0.89	0.602	0.631	0.645	0.722	0.509	0.422	0.343	0.312	0.425	0.276	0.432	–	–	–	–	–
NCI-H2087	1.22	1.17	1.09	1.15	0.962	0.455	0.776	0.965	0.898	0.594	1.02	0.934	0.71	0.868	0.554	1.28	1.37	1.51	1.25	0.771
LU99A	0.84	0.842	0.754	0.735	0.535	0.484	0.591	0.467	0.459	0.539	0.325	0.338	0.319	0.3	0.284	0.367	0.384	0.299	0.257	0.272
NCI-H1355	0.922	0.956	0.924	0.918	0.88	0.615	0.65	0.636	0.631	0.62	0.481	0.408	0.399	0.303	0.378	0.771	0.734	0.73	0.556	0.521
NCI-H520	0.67	0.668	0.69	0.487	0.638	0.659	0.71	0.838	0.673	0.452	0.311	0.242	0.289	0.237	0.286	–	–	–	–	–
NCI-H661	1.02	1	1.03	0.954	0.946	0.776	0.765	0.781	0.771	0.78	0.43	0.412	0.433	0.363	0.568	–	–	–	–	–
NCI-H650	1.07	1.02	0.98	1.04	0.988	0.321	0.558	0.505	0.455	0.598	0.924	0.899	0.917	0.921	0.908	1.09	1.17	1	1.08	1.23
SW 1573	0.989	0.787	1.02	0.915	0.855	0.796	0.625	1.06	0.835	0.654	0.523	0.448	0.502	0.474	0.39	–	–	–	–	–
COR-L23	0.905	0.944	0.869	0.933	0.776	0.397	0.46	0.62	0.422	0.237	0.88	0.749	0.697	0.649	0.478	–	–	–	–	–
SK-LU-1	0.844	0.824	0.84	0.814	0.486	0.833	0.799	0.783	0.776	0.518	0.562	0.546	0.637	0.467	0.434	–	–	–	–	–
NCI-H1650	1.25	0.951	0.947	0.773	0.476	0.566	0.622	0.668	0.488	0.337	0.618	0.621	0.554	0.524	0.479	–	–	–	–	–
UMC-11	1.08	1.07	1.12	0.945	0.684	0.334	0.421	0.431	0.411	0.44	0.808	0.841	0.827	0.5	0.677	–	–	–	–	–
SK-MES-1	0.845	0.884	0.828	0.885	0.828	1.1	1.19	1.03	1.03	0.713	0.304	0.351	0.37	0.408	0.316	–	–	–	–	–
NCI-H2009	1.15	1.16	1.28	1.23	1.03	0.724	0.736	0.676	0.653	0.516	0.852	0.935	1.02	0.669	0.48	–	–	–	–	–
NCI-H2023	0.837	0.959	1.02	0.919	0.556	0.676	0.871	0.675	0.636	0.539	0.242	0.293	0.267	0.259	0.232	–	–	–	–	–
COR-L 105	0.795	1.09	0.92	0.915	0.758	0.796	1.07	0.899	0.594	0.814	0.422	0.44	0.352	0.452	0.43	–	–	–	–	–
NCI-H1563	0.925	0.862	0.941	0.985	0.904	–	–	–	–	–	0.662	0.636	0.636	0.656	0.677	–	–	–	–	–
EBC-1	0.0963	0.1	0.105	0.128	0.117	–	–	–	–	–	0.416	0.519	0.553	0.576	0.329	–	–	–	–	–
Calu-6	0.921	0.861	0.925	0.917	0.609	–	–	–	–	–	0.933	0.9	1.08	0.805	0.765	–	–	–	–	–
HCC-44	–	–	–	–	–	1.15	1.09	1.04	1.14	1.11	0.657	1.76	0.593	0.636	0.57	1.04	1.01	0.989	0.969	1.05
